{"source": "ChEMBL document CHEMBL5465560", "about": "“Selectivity Literature for EUbOPEN Chemogenomic Library” (2024)", "key": {"[1]": {"tested_on": "T1, Receptor-type tyrosine-protein kinase FLT3 (Homo sapiens), P36888 [K663Q]", "T1 sequence (whole entry)": "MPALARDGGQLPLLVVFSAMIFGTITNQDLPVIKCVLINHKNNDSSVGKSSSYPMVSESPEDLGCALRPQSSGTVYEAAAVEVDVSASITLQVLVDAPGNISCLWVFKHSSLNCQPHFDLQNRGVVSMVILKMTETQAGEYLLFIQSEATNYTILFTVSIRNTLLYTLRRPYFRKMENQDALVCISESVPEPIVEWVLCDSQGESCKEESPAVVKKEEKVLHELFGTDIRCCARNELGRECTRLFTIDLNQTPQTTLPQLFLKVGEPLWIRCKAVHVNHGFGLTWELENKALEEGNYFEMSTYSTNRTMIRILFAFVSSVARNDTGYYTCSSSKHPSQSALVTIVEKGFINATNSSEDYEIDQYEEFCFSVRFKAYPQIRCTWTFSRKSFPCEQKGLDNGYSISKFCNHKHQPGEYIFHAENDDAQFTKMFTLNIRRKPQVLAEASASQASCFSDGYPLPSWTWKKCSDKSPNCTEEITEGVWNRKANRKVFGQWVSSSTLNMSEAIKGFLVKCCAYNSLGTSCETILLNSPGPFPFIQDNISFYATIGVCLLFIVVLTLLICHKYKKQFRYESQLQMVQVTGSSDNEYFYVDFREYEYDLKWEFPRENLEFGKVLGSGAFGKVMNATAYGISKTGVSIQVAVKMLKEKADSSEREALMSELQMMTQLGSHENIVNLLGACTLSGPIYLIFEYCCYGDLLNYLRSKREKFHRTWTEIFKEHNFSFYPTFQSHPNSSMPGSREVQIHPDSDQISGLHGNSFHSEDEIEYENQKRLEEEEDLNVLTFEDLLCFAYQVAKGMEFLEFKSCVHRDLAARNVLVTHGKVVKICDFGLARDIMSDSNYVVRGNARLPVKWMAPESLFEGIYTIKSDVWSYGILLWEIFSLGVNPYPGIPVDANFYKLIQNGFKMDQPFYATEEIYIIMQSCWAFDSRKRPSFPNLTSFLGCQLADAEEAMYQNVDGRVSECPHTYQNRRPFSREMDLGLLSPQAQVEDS", "assay": "(§1) Selectivity interaction (KinomeScan (DiscoverX)) EUB0001079a FLT3", "conditions": "at 1 µM"}, "[2]": {"tested_on": "T2, Receptor-type tyrosine-protein kinase FLT3 (Homo sapiens), P36888 [R834Q]", "T2 sequence (whole entry)": "T1 sequence (whole entry) with Q663K, R834Q", "assay": "as §1", "conditions": "at 1 µM"}, "[3]": {"target": "Receptor-type tyrosine-protein kinase FLT3 (Homo sapiens) (UniProt P36888)", "assay": "as §1", "conditions": "at 1 µM"}, "[4]": {"tested_on": "T3, Receptor-type tyrosine-protein kinase FLT3 (Homo sapiens), P36888 [D835Y]", "T3 sequence (whole entry)": "T1 sequence (whole entry) with Q663K, D835Y", "assay": "as §1", "conditions": "at 1 µM"}, "[5]": {"target": "Tyrosine-protein kinase BTK (Homo sapiens, UniProt Q06187)", "sequence (Q06187 whole entry)": "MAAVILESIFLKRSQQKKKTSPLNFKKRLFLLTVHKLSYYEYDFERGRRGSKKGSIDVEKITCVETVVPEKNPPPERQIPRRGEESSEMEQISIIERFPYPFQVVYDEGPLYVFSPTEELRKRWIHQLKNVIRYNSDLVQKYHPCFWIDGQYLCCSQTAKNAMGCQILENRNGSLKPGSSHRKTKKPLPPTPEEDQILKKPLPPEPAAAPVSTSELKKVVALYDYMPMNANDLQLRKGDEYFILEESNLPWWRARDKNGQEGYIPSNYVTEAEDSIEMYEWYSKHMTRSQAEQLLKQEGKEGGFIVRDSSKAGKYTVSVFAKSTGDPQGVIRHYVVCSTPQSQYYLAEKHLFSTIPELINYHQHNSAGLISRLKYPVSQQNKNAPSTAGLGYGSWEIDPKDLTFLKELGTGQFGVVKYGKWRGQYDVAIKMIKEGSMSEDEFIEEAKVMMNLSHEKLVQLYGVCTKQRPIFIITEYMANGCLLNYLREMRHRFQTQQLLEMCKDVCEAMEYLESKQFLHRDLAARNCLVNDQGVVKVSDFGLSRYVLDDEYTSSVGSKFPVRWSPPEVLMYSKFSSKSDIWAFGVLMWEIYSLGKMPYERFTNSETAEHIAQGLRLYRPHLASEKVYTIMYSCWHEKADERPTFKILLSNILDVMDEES", "assay": "Selectivity interaction (Kinome Scan (DiscoverX)) EUB0000229b BTK", "conditions": "at 10 µM"}}, "note": "Positions count from the first letter of the chain named.", "data": [{"smiles": "Nc1cnc(N2CCc3cc(S(=O)(=O)Nc4c(F)cc(Cl)cc4F)cc(N4CCCC4=O)c32)nc1", "note": "[TP-020n]", "values": [{"measurement": "% of control", "setting": "[1]", "value": 97, "unit": "%"}, {"measurement": "% of control", "setting": "[2]", "value": 77, "unit": "%"}, {"measurement": "% of control", "setting": "[3]", "value": 81, "unit": "%"}, {"measurement": "% of control", "setting": "[4]", "value": 100, "unit": "%"}]}, {"smiles": "COc1cc(N(C)c2ccnc3ccc(C(F)(F)F)cc23)cc(OC)c1OC", "values": [{"measurement": "% binding", "setting": "[5]", "value": 100, "unit": "%"}]}]}
